This is an account of results in PubChem BioAssay (NCI).

Molecules are shown by their SMILES.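 1) Cells in 96-well plates. 2) Compound, 48 h, 5 concentrations. 3) Linear interpolation between surrounding doses. 4) Unreached endpoint = highest concentration. GI50 marks 50% less growth. TGI: concentration producing complete growth inhibition.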

The first test concerns EKVX NSCLC. Description: growth of human tumour cells (NCI), 48 h.
`COCOC1/C=C/CCCC#C[C@H](C)C(=O)CC1` (some centres not stated) had a TGI of 23.1 µM.

On to `CN(C)/N=N/c1nc2c(c(=O)n(C)c(=O)n2C)n1C`, for which the TGI was more than 100 µM.

With `COc1ccc2[nH]c(O)c(/C=c3/cc4c(c(-c5cc(OC)c(OC)c(OC)c5)n3)=Nc3ccccc3-4)c2c1`, the GI50 is more than 100 µM and the TGI is more than 100 µM.

Turning to `COc1ccccc1N/C(=C\C(=O)C(=O)NC12CC3CC(CC(C3)C1)C2)c1ccccc1`, the TGI was more than 10 µM.

In turn, `NCC1CCN(c2nc3ccccc3c3c2CCCC3)CC1` returned a TGI of 27.7 µM.

`CCN(CC)CCc1c2c(nc3ccccc13)C(=O)c1cccnc1C2=O` showed a TGI of 13.7 µM.

`COc1ccccc1Nc1nc(N)nc(N)c1N=O` came in with a TGI of more than 100 µM.

For `COc1cccc2c(N)c3cccc(C(=O)NCCN(C)C)c3nc12`, the TGI was 1.09 µM.

`O=C(CCCCCCCCC(=O)NN1C(=O)/C(=C\c2ccc(O)c(O)c2)SC1c1ccc(Cl)cc1)NN1C(=O)/C(=C\c2ccc(O)c(O)c2)SC1c1ccc(Cl)cc1` (configuration not stated): the TGI was more than 100 µM.

The compound `CC(C)Sc1nc(C#N)cc2c1CCCC2` yielded a TGI of more than 100 µM.

`CN1C(=O)N(c2ccccc2)C2(CCN(CC3COc4ccccc4O3)CC2)C1=O` (configuration not stated) showed a TGI of more than 100 µM.

In the case of `O=C1/C(=C/c2ccccc2)N=C(c2ccccc2)N1n1c(-c2ccccc2)nc2ccccc2c1=O`, the TGI was more than 100 µM.

In turn, `O=c1nc(N2CCN(c3ccccc3)CC2)ccn1C1OC(CO)C(O)C1O` (configuration not stated) registered a TGI of more than 100 µM.

Turning to `Oc1ccc(/C=C/c2cc(O)cc(O)c2)cc1`, the TGI was more than 100 µM.

Regarding `O=C(CN1c2ccccc2Sc2ccccc21)N1CCNCC1`, the TGI is more than 100 µM.

`O=C(O)c1c2c(cc3c1CC1(Cc4ccccc4C1)C3)CCC2` came in with a TGI of more than 100 µM.

Compound `Cc1nc(-c2ccc([N+](=O)[O-])cc2)cn2c1nc1ccccc12` showed a TGI of more than 100 µM.

Compound `CN(C)CCCOC(=O)C(c1ccccc1)C1(O)CCSCC1` (configuration not stated) gave a TGI of more than 100 µM.

For `COCOC1/C=C/CCCCC2=C(C)C=C(C1)O2` (configuration not stated), the TGI was more than 100 µM.

For `O=C(O)c1cc2c(cc1CC(Cc1ccc3c(c1)CCC3)C(=O)O)CCC2` (configuration not stated), the TGI was more than 100 µM.

`COc1cc(-c2cc(=O)c3cc4c(cc3[nH]2)OCO4)cc(OC)c1O` gave a TGI of more than 10 µM.

Take `O=C(Nc1ccc(Br)cc1)c1c(-c2ccccc2)c2ccc(O)cc2oc1=O`: the TGI was more than 10 µM.

In the case of `O=C1C(Cl)=C(N2CCN(C3=C(Cl)C(=O)c4ccccc4C3=O)CC2)C(=O)c2ccccc21`, the TGI came to 4.91 µM.

`CC(C)(N=NC(C)(C)C(=O)NCCO)C(=O)NCCO` yielded a TGI of more than 100 µM.

Compound `CCOc1cc(NC(C)=O)ccc1C(=O)NNC(=O)c1ccccc1OC(C)=O` displayed a TGI of more than 70.4 µM.

`O=C(O)CN(CCNC(=O)OCC1c2ccccc2-c2ccccc21)CCNC(=O)OCC1c2ccccc2-c2ccccc21`: the TGI came out at 52.5 µM.

Another test deals with TK-10 renal. Kind of test: growth of human tumour cells (NCI), 48 h.
Take `COCOC1/C=C/CCCC#C[C@H](C)C(=O)CC1` (some centres not stated): the TGI worked out at 28.6 µM.

In turn, `CN(C)/N=N/c1nc2c(c(=O)n(C)c(=O)n2C)n1C` gave a TGI of more than 100 µM.

With `COc1ccc2[nH]c(O)c(/C=c3/cc4c(c(-c5cc(OC)c(OC)c(OC)c5)n3)=Nc3ccccc3-4)c2c1`, the GI50 is 18.5 µM and the TGI was more than 100 µM.

`COc1ccccc1N/C(=C\C(=O)C(=O)NC12CC3CC(CC(C3)C1)C2)c1ccccc1` yielded a TGI of more than 10 µM.

In turn, `NCC1CCN(c2nc3ccccc3c3c2CCCC3)CC1` showed a TGI of 25.9 µM.

In turn, `CCN(CC)CCc1c2c(nc3ccccc13)C(=O)c1cccnc1C2=O` yielded a TGI of 12.6 µM.

For the compound `COc1ccccc1Nc1nc(N)nc(N)c1N=O`, the TGI was more than 100 µM.

Compound `COc1cccc2c(N)c3cccc(C(=O)NCCN(C)C)c3nc12` gave a TGI of 6.14 µM.

The compound `O=C(CCCCCCCCC(=O)NN1C(=O)/C(=C\c2ccc(O)c(O)c2)SC1c1ccc(Cl)cc1)NN1C(=O)/C(=C\c2ccc(O)c(O)c2)SC1c1ccc(Cl)cc1` (configuration not stated) registered a TGI of more than 100 µM.

Regarding `CC(C)Sc1nc(C#N)cc2c1CCCC2`, the TGI is more than 100 µM.

The compound `CN1C(=O)N(c2ccccc2)C2(CCN(CC3COc4ccccc4O3)CC2)C1=O` (configuration not stated) had a TGI of more than 100 µM.

In the case of `O=C1/C(=C/c2ccccc2)N=C(c2ccccc2)N1n1c(-c2ccccc2)nc2ccccc2c1=O`, the TGI was more than 100 µM.

Regarding `O=c1nc(N2CCN(c3ccccc3)CC2)ccn1C1OC(CO)C(O)C1O` (configuration not stated), the TGI was more than 100 µM.

As to `Oc1ccc(/C=C/c2cc(O)cc(O)c2)cc1`, the TGI was more than 100 µM.

`O=C(CN1c2ccccc2Sc2ccccc21)N1CCNCC1` displayed a TGI of more than 100 µM.

With `O=C(O)c1c2c(cc3c1CC1(Cc4ccccc4C1)C3)CCC2`, the TGI was more than 100 µM.

Take `Cc1nc(-c2ccc([N+](=O)[O-])cc2)cn2c1nc1ccccc12`: the TGI was more than 100 µM.

As for `CN(C)CCCOC(=O)C(c1ccccc1)C1(O)CCSCC1` (configuration not stated), the TGI was more than 100 µM.

On to `COCOC1/C=C/CCCCC2=C(C)C=C(C1)O2` (configuration not stated), for which the TGI is more than 100 µM.

As to `O=C(O)c1cc2c(cc1CC(Cc1ccc3c(c1)CCC3)C(=O)O)CCC2` (configuration not stated), the TGI was more than 100 µM.

The compound `COc1cc(-c2cc(=O)c3cc4c(cc3[nH]2)OCO4)cc(OC)c1O` displayed a TGI of more than 10 µM.

For the compound `O=C(Nc1ccc(Br)cc1)c1c(-c2ccccc2)c2ccc(O)cc2oc1=O`, the TGI is more than 10 µM.

With `O=C1C(Cl)=C(N2CCN(C3=C(Cl)C(=O)c4ccccc4C3=O)CC2)C(=O)c2ccccc21`, the TGI turned out to be 3.42 µM.

The compound `CC(C)(N=NC(C)(C)C(=O)NCCO)C(=O)NCCO` displayed a TGI of more than 100 µM.

`CCOc1cc(NC(C)=O)ccc1C(=O)NNC(=O)c1ccccc1OC(C)=O` displayed a TGI of 7.03 µM.

Consider `O=C(O)CN(CCNC(=O)OCC1c2ccccc2-c2ccccc21)CCNC(=O)OCC1c2ccccc2-c2ccccc21`, for which the TGI worked out at 50.6 µM.

In the next test the test system is HOP-62 NSCLC. Description: growth of human tumour cells (NCI), 48 h.
`COCOC1/C=C/CCCC#C[C@H](C)C(=O)CC1` (some centres not stated): the TGI was 34.8 µM.

`CN(C)/N=N/c1nc2c(c(=O)n(C)c(=O)n2C)n1C`: the TGI is more than 100 µM.

On to `COc1ccc2[nH]c(O)c(/C=c3/cc4c(c(-c5cc(OC)c(OC)c(OC)c5)n3)=Nc3ccccc3-4)c2c1`, for which the GI50 is 11.6 µM and the TGI is more than 100 µM.

Compound `COc1ccccc1N/C(=C\C(=O)C(=O)NC12CC3CC(CC(C3)C1)C2)c1ccccc1` yielded a TGI of more than 10 µM.

As to `NCC1CCN(c2nc3ccccc3c3c2CCCC3)CC1`, the TGI came out at 32.1 µM.

On to `CCN(CC)CCc1c2c(nc3ccccc13)C(=O)c1cccnc1C2=O`, for which the TGI is 11.8 µM.

The compound `COc1ccccc1Nc1nc(N)nc(N)c1N=O` displayed a TGI of more than 100 µM.

With `COc1cccc2c(N)c3cccc(C(=O)NCCN(C)C)c3nc12`, the TGI stood at 0.833 µM.

In turn, `O=C(CCCCCCCCC(=O)NN1C(=O)/C(=C\c2ccc(O)c(O)c2)SC1c1ccc(Cl)cc1)NN1C(=O)/C(=C\c2ccc(O)c(O)c2)SC1c1ccc(Cl)cc1` (configuration not stated) displayed a TGI of 31.5 µM.

For `CC(C)Sc1nc(C#N)cc2c1CCCC2`, the TGI was more than 100 µM.

Take `CN1C(=O)N(c2ccccc2)C2(CCN(CC3COc4ccccc4O3)CC2)C1=O` (configuration not stated): the TGI was more than 100 µM.

In turn, `O=C1/C(=C/c2ccccc2)N=C(c2ccccc2)N1n1c(-c2ccccc2)nc2ccccc2c1=O` came in with a TGI of more than 100 µM.
